{"source": "patent US20060166319A1", "about": "(priority 2004, published 2006)", "key": {"NMR H/D exchange studies": {"assay": "NMR H/D exchange studies", "assay_type": "physicochemical", "details": "rt", "description": "Compound 7 (˜4 mg, ˜10 μmol) was dissolved in CD3OD (0.75 mL), and D2O (2 drops) was added. The reaction mixture was kept at rt and monitored by NMR (400 MHz). […] NaOD (30% w/w in D2O, 2 drops) was then added, and the solution monitored by NMR. […] After 25 h, the C5 proton peak completely disappeared.\nTo rule out the possibility that the loss of the C5 proton peak was due to decomposition, the resulting mixture was evaporated at rt under reduce pressure, and the residue was redissolved in CH3OH and allowed to stir for 1 day. The mixture was then evaporated to dryness in vacuo, and redissolved in CD3OD. The NMR spectrum was quickly taken, and the C5 proton peak was again observed. As before, the C5 proton peak slowly disappeared over a 1-day period.\nTo evaluate the importance of the imine bond on the acidity of the C5 proton, proline was dissolved in 0.75 mL CD3OD and 0.20 mL D2O and treated with […]."}, "[1]": {"assay": "Stability studies of compound 8 to NaOH, LiOH and TFA (TLC)", "assay_type": "physicochemical", "details": "rt", "description": "Stability Studies of Compound (8) to NaOH. NaOH (6 M, 20 μL, 0.12 mmol) was added to a solution of compound 8 (0.15 M, 100 μL, 0.015 mmol). The resulting mixture was allowed to react at rt over 3 days, during which the degradation of compound 8 was monitored by a ninhydrin TLC assay (CHCl3-MeOH—NH4OH(aq)=2:2:1).\nStability Studies of Compound (8) to LiOH. Compound 8 (21.9 mg, 84 μmol) was dissolved in water (2 mL) and LiOH.H2O (84.5 mg, 2.0 mmol) was added. This mixture was allowed to react at rt. While initially only starting material was observed by TLC (MeOH-EtOAc=4:1, Rf=0.26), after 24 h two new bands (Rf=0.10, 0.02) appeared. After 5 days, the solution was evaporated to dryness at rt, redissolved in MeOH (0.5 mL), and purified on chromatography silica gel. […] The other new band appears to be a mixture of species based on its NMR and MS data.\nStability Studies of Compound (8) to TFA. Compound 8 (21.7 mg, 0.083 mmol) was dissolved in MeOH (2 mL) and TFA (200 μL) was added. After 1 h, one new band (MeOH-EtOAc=2:1; Rf=0.22) was observed by TLC. The mixture was allowed to react to completion for 2 days at rt. The resulting mixture was evaporated to dryness, dissolved in MeOH (0.5 mL), and subjected to chromatography on silica gel. […] The peak for the C2 imine proton is absent, and the peak for the C5 proton is either absent or shifted."}, "PylS-His6 [2]": {"target": "T1, PylS-His6 (Methanosarcina barkeri, UniProt Q6WRH6)", "T1 construct": "made in house; host or cells: E. coli BL21 (DE3)", "T1 sequence (Q6WRH6 whole entry)": "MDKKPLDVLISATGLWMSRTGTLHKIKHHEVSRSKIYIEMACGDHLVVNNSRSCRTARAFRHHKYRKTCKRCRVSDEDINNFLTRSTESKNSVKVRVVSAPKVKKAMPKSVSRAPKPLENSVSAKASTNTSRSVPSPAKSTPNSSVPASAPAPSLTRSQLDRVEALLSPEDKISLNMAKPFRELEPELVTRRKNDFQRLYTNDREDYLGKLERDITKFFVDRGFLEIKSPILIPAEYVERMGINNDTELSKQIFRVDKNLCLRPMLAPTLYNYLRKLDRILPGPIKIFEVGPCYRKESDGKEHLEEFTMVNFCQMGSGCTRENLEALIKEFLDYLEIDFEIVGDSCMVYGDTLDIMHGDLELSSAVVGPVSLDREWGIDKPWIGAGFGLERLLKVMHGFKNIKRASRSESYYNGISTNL", "assay": "Aminoacylation of tRNACUA in acid-urea gels (gel-shift, northern blot)", "assay_type": "biochemical", "details": "for aminoacylation of tRNA^lys in the M. acetivorans tRNA pool: tRNA^lys instead of tRNACUA", "source_text": "Recombinant PylS-His6 was purified by Ni affinity chromatography from lysates of Escherichia coli expressing the recombinant Methanosarcina barkeri pylS gene modified so as to add a carboxy-terminal hexahistidine tag to the gene product. The tRNA pool extracted from Methanosarcina acetivorans or tRNACUA transcribed in vitro was used in charging experiments. Charged and uncharged tRNA species were separated by electrophoresis in a denaturing acid-urea polyacrylamide gel and tRNACUA was specifically detected by northern blotting with an oligonucleotide probe.\nThe reaction was terminated after 5-30 min at 37° C. with an equal volume of 0.3 M sodium acetate, 8 M urea pH 5.0. Charged and uncharged tRNA were separated by acid-urea acrylamide gel electrophoresis, blotted to nitrocellulose and probed with a 5μ ^32P-end-labelled, 72-base oligonucleotide complementary to tRNA^CUA. Radioactivity was analysed with a STORM Phosphorimager (Amersham Biosciences).\n(§1) Aminoacylation assay in acid-urea gels. […] Following incubation at 37° C. for 5 to 30 minutes, the reaction was terminated by addition of an equal volume of 2× loading dye (0.3 M sodium acetate, 8 M urea, pH 5.0) and charged and uncharged tRNA species analysed by acid-urea acrylamide gel electrophoresis following the methods outlined in Jester et al. Samples were electrophoresed in 14% polyacrylamide gels buffered with a 0.3 M sodium acetate-7 M urea solution, pH 5.0, at 50 volts and 4° C. for 24 hours. The same buffer without urea was used in the electrode chambers, and was replaced with fresh buffer every 6-8 hours. Finished gels were transblotted for 2 hours at 40 volts in 4° C. in a blotting solution of 10 mM Tris-acetate, 5 mM sodium acetate, and 0.5 mM EDTA, pH 8.0. The blot was then cross-linked by ultraviolet radiation (15000 μJ/cm2 per side) then prehybrized in 0.25 M sodium phosphate buffer, pH 7.2, and 5.7% SDS for at least 30 minutes. In order to detect charged and uncharged tRNACUA a 72 base oligonucleotide complementary to full length of tRNACUA was labeled with γ-^32P ATP and polynucleotide kinase. The probe was hybridized with the blot overnight at room temperature, then agitated at 22° C. for 5 minute in 10 mM sodium citrate, 150 mM NaCl, 1% SDS, pH 7.0, then agitated with two changes of 5 mM sodium citrate, 75 mM sodium chloride, 1% SDS, pH 7.0, for 5 minutes each. Radioactivity on the blot was imaged and analyzed using a STORM Phosphorimager (Amersham Biosciences)."}, "His6-PylS": {"target": "T2, His6-PylS (Methanosarcina barkeri, UniProt Q6WRH6)", "T2 construct": "made in house; host or cells: E. coli (inferred from the control with untransformed E. coli)", "T2 sequence (Q6WRH6 whole entry)": "as above", "assay": "Gel-shift aminoacylation assay with N-terminally His-tagged PylS", "assay_type": "biochemical", "description": "as §1, with “The probe was hybridized with the blot overnight at room temperature, then agitated at 22° C. for 5 minute in 10 mM sodium citrate, 150 mM NaCl, 1% SDS, pH 7.0, then agitated with two changes of 5 mM sodium citrate, 75 mM sodium chloride, 1% SDS, pH 7.0, for 5 minutes each.” left out"}, "PylS-His6 [3]": {"target": "T1, PylS-His6", "assay": "Pyrrolysine dependent pyrophosphate:ATP exchange", "assay_type": "biochemical", "design": "apparent Vmax: unit not given here", "description": "As a prerequisite of tRNA aminoacylation, an aminoacyl-adenylate and pyrophosphate are formed from the amino acid and ATP by an aminoacyl-tRNA synthetase. This reversible activation reaction can be assayed by the isotopic exchange of ^32P-pyrophosphate into ATP dependent on the addition of the cognate amino acid for the aminoacyl-tRNA synthetase in question.\nThe pyrophosphate exchange reaction was essentially performed following the method of Cole and Schimmel. All reactions were performed in duplicate at 37° C. The 100 to 200 μl reactions contained (unless noted) 0.3 to 1 μM PylSHis6. […] The specific activity of the radiolabel was adjusted from 4 to 10 dpm/pmol). The concentration of protein was 0.3 to 1 μM. At specific times, 25 μl aliquots were removed and quenched in 500 μl of a stop solution containing 1.6% (w/v) activated acid-washed charcoal (Sigma Chemical Co., St. Louis, Mo.), 80 mM sodium tetrapyrophosphate, and 3.5% (v/v) perchloric acid. Samples were filtered through Whatman GF/C glass-fiber filters and then the filter was washed three times with 5 ml of 40 mM sodium tetrasodium pyrophosphate solution containing 1.7% perchloric acid (v/v) and once with 5 ml 100% ethanol. Filters were dried at 80° C. for 5 minutes then placed in 20 ml scintillation vials containing 10 ml of Ultima Gold F scintillation cocktail (PerkinElmer), shaken once, and counted in a liquid scintillation analyzer. Identical reactions without amino acid, ATP, or enzyme were also set up as negative controls in duplicate. […] One substrate was kept constant at a concentration higher than its respective apparent Km value."}, "[4]": {"tested_on": "E. coli BL21 (DE3) expressing pylT, pylS and mtmB1", "assay": "Pyrrolysine-dependent amber suppression (mtmB1 UAG readthrough, anti-MtmB immunoblot)", "assay_type": "cell-based", "details": "strain expressing pylT, 1 mM amino acid, 4 h induction", "quoted_text": "As a reporter of UAG translation as a sense codon, we introduced the mtmB1 gene into E. coli BL21 (DE3). […] Plasmids were constructed bearing combinations of mtmB1, pylS and/or pylT under the control of the T7 promoter, and transformed into E. coli. […] Total cellular proteins from each strain were then separated by SDS-polyacrylamide-gel electrophoresis and mtmB1 gene products were detected by subsequent immunoblotting with polyclonal antibody specific for purified M. barkeri MtmB.\nTo test for amber suppression, overnight cultures were grown in Luria-Bertani broth (3 ml) with 100 μg ml^−1 ampicillin. Subsequently, 200 μl was inoculated into 1 ml fresh medium and grown to a D600 of 0.6. […] The mtmB1 gene products in equivalent amounts of lysates were then analysed by immunoblotting of a SDS 12.5% polyacrylamide gel with affinity-purified rabbit anti-MtmB antibody^6. The Rainbow Molecular Weight markers (Amersham Biosciences) were used.\nTo test for amber suppression, overnight cultures of a strain bearing one of the plasmids were grown in LB broth (3 mL) with 100 ug/ml final ampicillin. Subsequently, 200 μl of each culture was inoculated into 1 ml of fresh LB medium with ampicillin, and grown to an A600 of approximately 0.6. […]"}, "[5]": {"tested_on": "E. coli BW25141(DE3) transformed with pDLGUS", "assay": "beta-glucuronidase activity from uidA gene with UAG codon replacing AAA286", "assay_type": "cell-based", "source_text": "In order to avoid interference by the residue uidA gene, we employed a strain with most of uidA deleted, E. coli BW25141(DE3). This strain was transformed with pDLGUS, a variant of the pEC03 plasmid in which the mtmB1 gene was removed and the uidA gene introduced in its place."}}}
{"smiles": "COC(=O)[C@H](CCCCNC(=O)[C@@H]1N=CC[C@H]1C)NC(=O)C(F)(F)F", "note": "[Compound 7, Nα-Trifluoroacetyl-L-pyrrolysine methyl ester]", "values": [{"measurement": "change in NMR spectrum", "setting": "NMR H/D exchange studies; CD3OD with D2O, 3-day period, no base", "value": "No change was observed"}, {"measurement": "time until C5 proton peak completely disappeared (H/D exchange)", "setting": "NMR H/D exchange studies; CD3OD/D2O with NaOD", "value": 25, "unit": "h"}]}
{"smiles": "C[C@@H]1CC=N[C@H]1C(=O)NCCCC[C@H](N)C(=O)[O-].[Li+]", "note": "[Compound 8, L-Pyrrolysine lithium salt]", "values": [{"measurement": "degradation in LiOH observed by TLC", "setting": "[1]; LiOH in water, after 24 h", "value": "two new bands"}, {"measurement": "degradation in NaOH monitored by ninhydrin TLC", "setting": "[1]; NaOH 6 M 20 μL added to 0.15 M solution, over 3 days", "value": "One new band"}, {"measurement": "degradation in TFA observed by TLC", "setting": "[1]; TFA in MeOH, after 1 h", "value": "one new band"}]}
{"smiles": "NCCCC[C@H](N)C(=O)O", "note": "[lysine, reference compound]", "values": [{"measurement": "formation of charged tRNACUA species", "setting": "PylS-His6 [2]; 20 canonical amino acids each at 50 μM, or only 50 μM lysine, no pyrrolysine", "value": "not formed"}, {"measurement": "aminoacylation of tRNA^lys in the M. acetivorans tRNA pool", "setting": "PylS-His6 [2]", "value": "does not aminoacylate"}, {"measurement": "lysyl- or pyrrolysyl-tRNA synthetase activity", "setting": "His6-PylS", "value": "no lysyl-tRNA synthetase activity was detectable"}, {"measurement": "isotopic exchange into ATP above background", "setting": "PylS-His6 [3]; incubation as long as 30 min, canonical 20 amino acids each at 100 μM, or 1 mM lysine", "value": "no detectable isotopic exchange"}, {"measurement": "UAG readthrough: expression of 50-kDa MtmB", "setting": "[4]", "value": "could not be replaced"}]}
{"smiles": "C[C@@H]1CC=N[C@H]1C(=O)NCCCC[C@H](N)C(=O)O", "note": "[pyrrolysine, lysine in amide linkage with (4R,5R)-4-methyl-pyrroline-5-carboxylate]", "values": [{"measurement": "maximal conversion of deacylated tRNACUA to charged species", "setting": "PylS-His6 [2]; deacylated M. acetivorans cellular tRNA pool, incubation with pyrrolysine, ATP and PylS-His6", "value": 50, "unit": "%"}, {"measurement": "maximum of tRNACUA transcribed in vitro aminoacylated", "setting": "PylS-His6 [2]; in vitro transcribed tRNACUA, synthetic pyrrolysine, ATP-dependent", "value": 43, "unit": "%"}, {"measurement": "aminoacylation of tRNA^lys in the M. acetivorans tRNA pool", "setting": "PylS-His6 [2]", "value": "does not aminoacylate"}, {"measurement": "lysyl- or pyrrolysyl-tRNA synthetase activity", "setting": "His6-PylS", "value": "does have pyrrolysyl-tRNA synthetase activity"}, {"measurement": "Km", "setting": "PylS-His6 [3]; 37° C., pH 7.2, other substrate held constant, read-out: apparent Km", "value": 53, "unit": "µM"}, {"measurement": "apparent Vmax", "setting": "PylS-His6 [3]; exchange reaction, 37° C.", "value": 120}, {"measurement": "UAG readthrough: expression of 50-kDa MtmB", "setting": "[4]", "value": "large amounts of 50-kDa MtmB"}, {"measurement": "increase of beta-glucuronidase activity", "setting": "[5]; 1 mM synthetic pyrrolysine versus absence of pyrrolysine", "value": "approximately 100 fold"}, {"measurement": "beta-glucuronidase activity", "setting": "[5]; induced with IPTG in the presence of 1 mM synthetic pyrrolysine", "value": "4.", "unit": "umol/min·mg protein"}]}
